# Test results taken from patent US4559323A, “A41030 Antibiotics” (Eli Lilly and Company, priority 1984, dated 1985).
# Columns and labels:
# [1] = Electrometric titration (pKa); format: physicochemical; conditions: electrometric titration in 66% dimethylformamide in water
# Hemophilus influenzae = assay: Agar-dilution MIC; format: cell-based
# Streptococcus pyogenes = assay: Agar-dilution MIC; format: cell-based
# Text: (§1) The agar-dilution procedure described by the International Collaborative study (ICS) group was used to determine the minimum inhibitory concentrations (MIC's).
# [2] = tested on: Streptococcus sp. (Group D); assay: Agar-dilution MIC; format: cell-based
# Text: as §1
# Bacteroides fragilis = assay: Agar-dilution MIC (anaerobes); format: cell-based; conditions: Table 12, 24-hour
# Text: as §1
smiles,measurement,setting,value
NC1C(=O)NC2Cc3ccc(c(Cl)c3)Oc3cc4cc(c3O)Oc3ccc(cc3Cl)C(O)C3NC(=O)C(NC(=O)C4NC(=O)C(NC2=O)c2cc(O)cc(c2)Oc2cc1ccc2O)c1cc(Cl)c(O)c(c1)-c1c(O)cc(O)cc1C(C(=O)O)NC3=O (stereo not shown) [A41030 factor A],"pKa, first titratable group",[1],about 5.53
same,"pKa, second titratable group",[1],~7.60
same,"pKa, third titratable group",[1],~10.37
same,MIC,"Hemophilus influenzae; Table 9, strain 75-312",8 µg/mL
same,MIC,"Hemophilus influenzae; Table 9, strain 75-313",16 µg/mL
same,MIC,"Hemophilus influenzae; Table 9, strain 75-364",16 µg/mL
same,MIC,"Hemophilus influenzae; Table 9, strain 75-465",32 µg/mL
same,MIC,"Hemophilus influenzae; Table 9, strain 75-19300",16 µg/mL
same,MIC,"Hemophilus influenzae; Table 9, strain 75-90383",16 µg/mL
same,MIC,"Hemophilus influenzae; Table 9, strain 4842",8 µg/mL
same,MIC,"Hemophilus influenzae; Table 9, strain A. Hall",16 µg/mL
same,MIC,"Hemophilus influenzae; Table 9, strain Bruno",16 µg/mL
same,MIC,"Hemophilus influenzae; Table 9, strain G. Newton",32 µg/mL
same,MIC,"Hemophilus influenzae; Table 9, strain Howard",16 µg/mL
same,MIC,"Hemophilus influenzae; Table 9, strain Miller",16 µg/mL
same,MIC,"Hemophilus influenzae; Table 9, strain O. Steele",16 µg/mL
same,MIC,"Hemophilus influenzae; Table 9, strain P. Wylie",16 µg/mL
same,MIC,"Hemophilus influenzae; Table 9, strain R251",16 µg/mL
same,MIC,"Hemophilus influenzae; Table 9, strain R259",16 µg/mL
same,MIC,"Hemophilus influenzae; Table 9, strain R272",16 µg/mL
same,MIC,"Hemophilus influenzae; Table 9, strain R274",16 µg/mL
same,MIC,"Hemophilus influenzae; Table 9, strain S. Ford",16 µg/mL
same,MIC,"Hemophilus influenzae; Table 17, 24 hours, Haemophilus influenzae 251",2 µg/mL
same,MIC,"Hemophilus influenzae; Table 17, 24 hours, Haemophilus influenzae Brun",8 µg/mL
same,MIC,"Hemophilus influenzae; Table 18, 24 hours, Haemophilus influenzae 76",4 µg/mL
same,MIC,"Hemophilus influenzae; Table 18, 24 hours, Haemophilus influenzae 312",2 µg/mL
same,MIC,"Hemophilus influenzae; Table 18, 24 hours, Haemophilus influenzae 4842",2 µg/mL
same,MIC,"Hemophilus influenzae; Table 18, 24 hours, Haemophilus influenzae 16836",4 µg/mL
same,MIC,"Hemophilus influenzae; Table 18, 24 hours, Haemophilus influenzae Bond",2 µg/mL
same,MIC,"Hemophilus influenzae; Table 18, 24 hours, Haemophilus influenzae C.L.",4 µg/mL
same,MIC,"Hemophilus influenzae; Table 18, 24 hours, Haemophilus influenzae Mx366",2 µg/mL
same,MIC,"Hemophilus influenzae; Table 18, 24 hours, Haemophilus influenzae Mx371",2 µg/mL
same,MIC,"Streptococcus pyogenes; Table 11, S. pyogenes 9943",0.25 µg/mL
same,MIC,"Streptococcus pyogenes; Table 11, S. pyogenes 10389",0.25 µg/mL
same,MIC,"Streptococcus pyogenes; Table 11, S. pyogenes 12344",0.5 µg/mL
same,MIC,"Streptococcus pyogenes; Table 11, S. pyogenes C203",0.25 µg/mL
same,MIC,"Streptococcus pyogenes; Table 11, S. pyogenes M-6517",0.25 µg/mL
same,MIC,"Streptococcus pyogenes; Table 17, 24 hours, Streptococcus pyogenes C203",0.5 µg/mL
same,MIC,"Streptococcus pyogenes; Table 18, 24 hours, Streptococcus pyogenes C203",0.25 µg/mL
same,MIC,"[2]; Table 11, Streptococcus sp. (Group D) 238",0.25 µg/mL
same,MIC,"[2]; Table 11, Streptococcus sp. (Group D) 282",0.25 µg/mL
same,MIC,"[2]; Table 11, Streptococcus sp. (Group D) 9901",0.25 µg/mL
same,MIC,"[2]; Table 11, Streptococcus sp. (Group D) 12253F",0.25 µg/mL
same,MIC,"[2]; Table 11, Streptococcus sp. (Group D) Guze",0.25 µg/mL
same,MIC,"[2]; Table 17, 24 hours, Streptococcus sp. Group D 9960",2 µg/mL
same,MIC,"[2]; Table 17, 24 hours, Streptococcus sp. Group D X66",1 µg/mL
same,MIC,"[2]; Table 18, 24 hours, Streptococcus sp. Group D 2041",0.5 µg/mL
same,MIC,"[2]; Table 18, 24 hours, Streptococcus sp. Group D 2058",0.5 µg/mL
same,MIC,"[2]; Table 18, 24 hours, Streptococcus sp. Group D 8043",0.25 µg/mL
same,MIC,"[2]; Table 18, 24 hours, Streptococcus sp. Group D 9901",1 µg/mL
same,MIC,"[2]; Table 18, 24 hours, Streptococcus sp. Group D 9960",0.5 µg/mL
same,MIC,"[2]; Table 18, 24 hours, Streptococcus sp. Group D 12253F",0.25 µg/mL
same,MIC,"[2]; Table 18, 24 hours, Streptococcus sp. Group D Mx161",0.25 µg/mL
same,MIC,"[2]; Table 18, 24 hours, Streptococcus sp. Group D X66",0.25 µg/mL
same,MIC,Bacteroides fragilis; B. fragilis 2,64 µg/mL
same,MIC,Bacteroides fragilis; B. fragilis 9,64 µg/mL
same,MIC,Bacteroides fragilis; B. fragilis 103,32 µg/mL
same,MIC,Bacteroides fragilis; B. fragilis 104,32 µg/mL
same,MIC,Bacteroides fragilis; B. fragilis 106,64 µg/mL
same,MIC,Bacteroides fragilis; B. fragilis 107,32 µg/mL
same,MIC,Bacteroides fragilis; B. fragilis 108,32 µg/mL
